US7767659B2, “Synthesis of naturally occurring ecteinascidins and related compounds” (Pharma Mar, S.A., priority 2002, dated 2010)
Like-named read-outs stand apart in the source and are kept apart here.

Assays:
HT-29 = assay: cells; conditions: Homo sapiens, HT-29, 48 h
How it was run: (§1)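 Colorimetric SRB read (490 nm) on triplicate wells after 48 h at 37 °C, 5% CO2. Dose range 10 to 10^−8 μg/ml; 5×10^3 cells/well pre-attached 18 h.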

A-549 = assay: cells; conditions: Homo sapiens, A549, 48 h
How it was run: as §1

LoVo = assay: cells; conditions: Homo sapiens, LoVo, 48 h; for GI50: read-out: LOVO GI50; for CC50: read-out: LOVO LC50; for IC (TGI): read-out: LOVO TGI
How it was run: as §1

HeLa-APL = assay: Inhibition of cells growth by colorimetric assay (SRB); conditions: Homo sapiens, 48 h; for GI50: read-out: HELA-APL GI50; for CC50: read-out: HELA-APL LC50; for IC (TGI): read-out: HELA-APL TGI
How it was run: as §1

LoVo-Dox = assay: as above; conditions: Homo sapiens, 48 h; for GI50: read-out: LOVO-DOX GI50; for CC50: read-out: LOVO-DOX LC50; for IC (TGI): read-out: LOVO-DOX TGI
How it was run: as §1

DU-145 = assay: as above; conditions: Homo sapiens, DU-145, 48 h
How it was run: as §1

LNCaP = assay: as above; conditions: Homo sapiens, LNCaP, 48 h
How it was run: as §1

SK-BR-3 = assay: as above; conditions: Homo sapiens, SK-BR-3, 48 h; for GI50: read-out: SK-BR3 GI50; for CC50: read-out: SK-BR3 LC50; for IC (TGI): read-out: SK-BR3 TGI
How it was run: as §1

IGROV-1 = assay: as above; conditions: Homo sapiens, IGROV-1, 48 h; for GI50: read-out: IGROV GI50; for CC50: read-out: IGROV LC50; for IC (TGI): read-out: IGROV TGI
How it was run: as §1

K-562 = assay: as above; conditions: Homo sapiens, K562, 48 h; for GI50: read-out: K562 GI50; for CC50: read-out: K562 LC50; for IC (TGI): read-out: K562 TGI
How it was run: as §1

IGROV-ET = assay: as above; conditions: Homo sapiens, 48 h; for GI50: read-out: IGROV-ET GI50; for CC50: read-out: IGROV-ET LC50; for IC (TGI): read-out: IGROV-ET TGI
How it was run: as §1

PANC-1 = assay: as above; conditions: Homo sapiens, PANC-1, 48 h; for GI50: read-out: PANC-1 GI50; for CC50: read-out: PANC-1 LC50; for IC (TGI): read-out: PANC-1 TGI
How it was run: as §1

SK-MEL-28 = assay: as above; conditions: Homo sapiens, SK-MEL-28, 48 h
How it was run: as §1

HeLa = assay: as above; conditions: Homo sapiens, HeLa, 48 h; for GI50: read-out: HELA GI50; for CC50: read-out: HELA LC50; for IC (TGI): read-out: HELA TGI
How it was run: as §1

Compound `CCCCCCCC(=O)Oc1c(C)c2c(c3c1[C@H]1SC[C@]4(NCCc5cc(O)c(OC)cc54)C(=O)OC[C@@H]3N3C1[C@@H]1N[C@@H](Cc4cc(C)c(OC)c(O)c41)[C@@H]3O)OCO2` (stereo partly drawn) [compound 54] has a GI50 (HT-29; read-out: HT29 GI50) of 29.9 nM, a CC50 (HT-29; read-out: HT29 LC50) of 12000 nM and an IC (TGI) (HT-29; read-out: HT29 TGI) of 123 nM. The GI50 (A-549; read-out: A549 GI50) was 20.2 nM, the CC50 (A-549; read-out: A549 LC50) was 636 nM and the IC (TGI) (A-549; read-out: A549 TGI) was 66.3 nM. For the same compound, the GI50 (LoVo) was 3.85 nM, the CC50 (LoVo) was 12000 nM and the IC (TGI) (LoVo) was 14.4 nM. It also gave a GI50 (HeLa-APL) of 13.3 nM, a CC50 (HeLa-APL) of 459 nM and an IC (TGI) (HeLa-APL) of 143 nM. The GI50 (LoVo-Dox) was 338 nM, the CC50 (LoVo-Dox) was 12000 nM and the IC (TGI) (LoVo-Dox) was 12000 nM. It also gave a GI50 (DU-145; read-out: DU145 GI50) of 3.76 nM, a CC50 (DU-145; read-out: DU145 LC50) of 12000 nM and an IC (TGI) (DU-145; read-out: DU145 TGI) of 22 nM. For the same compound, the GI50 (LNCaP; read-out: LNCAP GI50) was 7.42 nM, the CC50 (LNCaP; read-out: LNCAP LC50) was 109 nM and the IC (TGI) (LNCaP; read-out: LNCAP TGI) was 29.3 nM. For the same compound, the GI50 (SK-BR-3) was 12.7 nM, the CC50 (SK-BR-3) was 12000 nM and the IC (TGI) (SK-BR-3) was 154 nM. For the same compound, the GI50 (IGROV-1) was 6.56 nM, the CC50 (IGROV-1) was 3370 nM and the IC (TGI) (IGROV-1) was 39.4 nM. The GI50 (K-562) was 1.88 nM, the CC50 (K-562) was 2700 nM and the IC (TGI) (K-562) was 5.18 nM. The GI50 (IGROV-ET) was 37 nM, the CC50 (IGROV-ET) was 12000 nM and the IC (TGI) (IGROV-ET) was 120 nM. The GI50 (PANC-1) was 23 nM, the CC50 (PANC-1) was 5310 nM and the IC (TGI) (PANC-1) was 64.8 nM. For the same compound, the GI50 (SK-MEL-28; read-out: MEL-28 GI50) was 15.5 nM, the CC50 (SK-MEL-28; read-out: MEL-28 LC50) was 83.9 nM and the IC (TGI) (SK-MEL-28; read-out: MEL-28 TGI) was 36.1 nM. The GI50 (HeLa) was 21.9 nM, the CC50 (HeLa) was 376 nM and the IC (TGI) (HeLa) was 64.1 nM.
For `CCCCCCCCCCCCCCCC(=O)NC1CS[C@@H]2c3c(OC(C)=O)c(C)c4c(c3[C@H](COC1=O)N1C2[C@@H]2N[C@@H](Cc3cc(C)c(OC)c(O)c32)[C@@H]1O)OCO4` (stereo partly drawn) [compound 38], the GI50 (HT-29; read-out: GI50 HT29) was 653 nM, the CC50 (HT-29; read-out: LC50 HT29) was 4730 nM and the IC (TGI) (HT-29; read-out: TGI HT29) was 1670 nM. For the same compound, the GI50 (A-549; read-out: GI50 A549) was 473 nM, the CC50 (A-549; read-out: LC50 A549) was 4710 nM and the IC (TGI) (A-549; read-out: TGI A549) was 1420 nM. It also gave a GI50 (LoVo) of 358 nM, a CC50 (LoVo) of 2510 nM and an IC (TGI) (LoVo) of 793 nM. It also gave a GI50 (HeLa-APL) of 295 nM, a CC50 (HeLa-APL) of 1020 nM and an IC (TGI) (HeLa-APL) of 549 nM. The GI50 (LoVo-Dox) was 1540 nM, the CC50 (LoVo-Dox) was 6150 nM and the IC (TGI) (LoVo-Dox) was 3080 nM. For the same compound, the GI50 (DU-145; read-out: GI50 DU145) was 286 nM, the CC50 (DU-145; read-out: LC50 DU145) was 1110 nM and the IC (TGI) (DU-145; read-out: TGI DU145) was 564 nM. For the same compound, the GI50 (LNCaP; read-out: GI50 LNCAP) was 338 nM, the CC50 (LNCaP; read-out: LC50 LNCAP) was 796 nM and the IC (TGI) (LNCaP; read-out: TGI LNCAP) was 518 nM. The GI50 (SK-BR-3) was 194 nM, the CC50 (SK-BR-3) was 1070 nM and the IC (TGI) (SK-BR-3) was 457 nM. For the same compound, the GI50 (IGROV-1) was 381 nM, the CC50 (IGROV-1) was 4180 nM and the IC (TGI) (IGROV-1) was 786 nM. For the same compound, the GI50 (K-562) was 193 nM, the CC50 (K-562) was 1540 nM and the IC (TGI) (K-562) was 510 nM. For the same compound, the GI50 (IGROV-ET) was 365 nM, the CC50 (IGROV-ET) was 1480 nM and the IC (TGI) (IGROV-ET) was 675 nM. The GI50 (PANC-1) was 616 nM, the CC50 (PANC-1) was 4500 nM and the IC (TGI) (PANC-1) was 1380 nM. For the same compound, the GI50 (SK-MEL-28; read-out: GI50 MEL-28) was 272 nM, the CC50 (SK-MEL-28; read-out: LC50 MEL-28) was 860 nM and the IC (TGI) (SK-MEL-28; read-out: TGI MEL-28) was 483 nM. It also gave a GI50 (HeLa) of 317 nM, a CC50 (HeLa) of 935 nM and an IC (TGI) (HeLa) of 545 nM.
